Measurements from ChEMBL document CHEMBL5055639, “ω-Functionalized Lipid Prodrugs of HIV NtRTI Tenofovir with Enhanced Pharmacokinetic Properties” (J Med Chem, 2021).

Experiments:
[1] = Therapeutic index, ratio of CC50 for cytotoxicity against HEK293T cells to IC50 for antiviral activity against human immunodeficiency virus expressed in HEK293T cells; type: toxicity, cell-based; details: read-out: Ratio CC50/IC50
[2] = tested on: HEK-293T; experiment: Cytotoxicity against HEK293T cells assessed as reduction in cell viability measured after 48 hrs by CellTiter 96 Aqueous One Solution reagent based cell proliferation assay; details: human
[3] = target: Cytochrome P450 2D6 (Homo sapiens, UniProt P10635); experiment: Inhibition of human recombinant CYP2D6 expressed in insect microsome using (3-[2-([…]-N-methylammonium)-ethyl]-7-methoxy-4-methylcoumarin iodide as a substrate incubated for 30 mins followed by addition of NADPH regenerating system measured immediately by fluorescence based analysis; type: ADME, microsomes
Chain of Cytochrome P450 2D6 (P10635 whole entry): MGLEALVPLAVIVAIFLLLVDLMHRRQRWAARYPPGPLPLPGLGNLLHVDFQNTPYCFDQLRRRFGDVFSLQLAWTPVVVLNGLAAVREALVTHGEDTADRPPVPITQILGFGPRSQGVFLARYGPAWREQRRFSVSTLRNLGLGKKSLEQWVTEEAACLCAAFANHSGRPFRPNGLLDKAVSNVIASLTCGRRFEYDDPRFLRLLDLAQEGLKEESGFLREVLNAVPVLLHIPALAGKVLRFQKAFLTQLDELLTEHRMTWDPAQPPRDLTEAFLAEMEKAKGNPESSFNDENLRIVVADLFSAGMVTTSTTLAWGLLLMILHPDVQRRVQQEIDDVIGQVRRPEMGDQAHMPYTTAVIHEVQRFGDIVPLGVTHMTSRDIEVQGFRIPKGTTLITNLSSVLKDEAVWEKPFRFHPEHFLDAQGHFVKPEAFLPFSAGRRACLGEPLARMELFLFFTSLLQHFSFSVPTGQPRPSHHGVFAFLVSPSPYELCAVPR

[4] = target: Cytochrome P450 3A4 (Homo sapiens, UniProt P08684); experiment: Inhibition of human recombinant CYP3A4 expressed in insect microsome using 7-benzyloxy-4-trifluoromethylcoumarin as a substrate incubated for 30 mins followed by addition of NADPH regenerating system measured immediately by fluorescence based analysis; type: ADME, microsomes
Chain of Cytochrome P450 3A4 (P08684 whole entry): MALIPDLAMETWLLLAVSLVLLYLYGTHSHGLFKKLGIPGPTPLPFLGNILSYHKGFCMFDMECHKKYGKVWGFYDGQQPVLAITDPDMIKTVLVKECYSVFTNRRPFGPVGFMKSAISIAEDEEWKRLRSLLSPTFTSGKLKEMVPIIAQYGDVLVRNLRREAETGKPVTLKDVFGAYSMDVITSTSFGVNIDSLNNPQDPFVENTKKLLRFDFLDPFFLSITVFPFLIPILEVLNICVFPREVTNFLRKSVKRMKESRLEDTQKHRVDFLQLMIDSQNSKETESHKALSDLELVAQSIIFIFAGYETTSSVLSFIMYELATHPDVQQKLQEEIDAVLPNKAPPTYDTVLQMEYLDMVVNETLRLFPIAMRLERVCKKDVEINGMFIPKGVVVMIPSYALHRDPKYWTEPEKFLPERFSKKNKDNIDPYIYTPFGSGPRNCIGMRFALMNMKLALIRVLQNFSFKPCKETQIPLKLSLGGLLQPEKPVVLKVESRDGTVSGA

[5] = tested on: Human immunodeficiency virus; experiment: Antiviral activity against human immunodeficiency virus expressed in HEK293T cells coexpressing firefly luciferase gene incubated for 48 hrs by Bright-Glo luciferase assay; type: functional, organism-based; details: Human immunodeficiency virus 1, HEK-293T
[6] = tested on: Human immunodeficiency virus; experiment: Potency index, ratio of test compound IC50 to TXL IC50 for antiviral activity against human immunodeficiency virus expressed in HEK293T cells coexpressing firefly luciferase gene incubated for 48 hrs by Bright-Glo luciferase assay; type: functional
[7] = Metabolic stability in human liver microsomes assessed as half life at 3 uM measured up to 30 min in presence of NADPH by LC-MS/MS analysis; type: ADME, Microsome; details: 0.5 h
[8] = Prodrug conversion in C57BL/6 mouse plasma assessed as AUC(0 to 24 hrs) of TFV metabolite at 10 mg/kg, po measured up to 24 hrs by LC-MS/MS analysis; type: ADME, organism-based; set-up: time < 24 hrs, dose 10 mg/kg, route po; details: in vivo
[9] = Ratio of prodrug AUC(0 to 24 hrs) to TFV AUC(0 to 24 hrs) in C57BL/6 mouse plasma at 10 mg/kg, po measured up to 24 hrs by LC-MS/MS analysis; type: ADME, organism-based; details: in vivo
[10] = Tmax in C57BL/6 mouse liver at 10 mg/kg, po measured up to 24 hrs by LC-MS/MS analysis; type: ADME, organism-based; details: mouse, in vivo, po, 10 mg/kg, 24 h
[11] = Prodrug conversion in C57BL/6 mouse liver assessed as AUC(0 to 24 hrs) of TFV metabolite at 10 mg/kg, po measured up to 24 hrs by LC-MS/MS analysis; type: ADME, organism-based; set-up: time < 24 hrs, dose 10 mg/kg, route po; details: in vivo
[12] = Prodrug conversion in C57BL/6 mouse liver assessed as Cmax of TFV metabolite at 10 mg/kg, po measured up to 24 hrs by LC-MS/MS analysis; type: ADME, organism-based; set-up: dose 10 mg/kg, time < 24 hrs, route po; details: in vivo
[13] = Tmax in C57BL/6 mouse plasma at 10 mg/kg, po measured up to 24 hrs by LC-MS/MS analysis; type: ADME, organism-based; details: in vivo
[14] = Prodrug conversion in C57BL/6 mouse plasma assessed as Tmax of TFV metabolite at 10 mg/kg, po measured up to 24 hrs by LC-MS/MS analysis; type: ADME, organism-based; details: in vivo
[15] = Prodrug conversion in C57BL/6 mouse plasma assessed as Cmax of TFV metabolite at 10 mg/kg, po measured up to 24 hrs by LC-MS/MS analysis; type: ADME, organism-based; set-up: time < 24 hrs, dose 10 mg/kg, route po; details: in vivo
[16] = Prodrug conversion in C57BL/6 mouse liver assessed as Tmax of TFV metabolite at 10 mg/kg, po measured up to 24 hrs by LC-MS/MS analysis; type: ADME, organism-based; details: in vivo
[17] = Ratio of prodrug AUC(0 to 24 hrs) to TFV AUC(0 to 24 hrs) in C57BL/6 mouse liver at 10 mg/kg, po measured up to 24 hrs by LC-MS/MS analysis; type: ADME, organism-based; details: in vivo
[18] = Plasma protein binding in C57BL/6 mouse at 10 mg/kg, po measured up to 24 hrs by LC-MS/MS; type: ADME, organism-based; details: read-out: PPB
[19] = Ratio of test compound t1/2 to TXL t1/2 for metabolic stability in human liver microsomes assessed as half life at 3 uM measured up to 30 min in presence of NADPH by LC-MS/MS analysis; type: ADME, Microsome; details: 0.5 h
[20] = Therapeutic index, ratio of CC50 for cytotoxicity against HEK293T cells in absence of HSA to IC50 for antiviral activity against human immunodeficiency virus expressed in HEK293T cells in absence of HSA; type: toxicity, cell-based; details: read-out: Ratio CC50/IC50
[21] = tested on: HEK-293T; experiment: Cytotoxicity against HEK293T cells assessed as reduction in cell viability in absence of HSA measured after 48 hrs by CellTiter 96 Aqueous One Solution reagent based cell proliferation assay; details: human
[22] = tested on: Human immunodeficiency virus; experiment: Antiviral activity against human immunodeficiency virus expressed in HEK293T cells coexpressing firefly luciferase gene incubated for 48 hrs in absence of HSA by Bright-Glo luciferase assay; type: functional, organism-based; details: Human immunodeficiency virus 1, HEK-293T

Row | Compound | selectivity ratio [1] | CC50 [2] [µM] | IC50 [3] [µM] | IC50 [4] [µM] | IC50 [5] [µM] | t1/2 [7] [h] | also measured
1 | CCCCCCCCCCCCCCCCCCCCOP(=O)(O)CO[C@H](C)Cn1cnc2c(N)ncnc21.N | 104 | 13.2 | 33.2 | 50 | 0.127 | – | Ratio IC50 [6]: 7
2 | CCCCCCCCCCCCCCCOP(=O)(O)CO[C@H](C)Cn1cnc2c(N)ncnc21.N | > 49 | > 100 | – | – | 2.06 | 0.217 | –
3 | C[C@H](Cn1cnc2c(N)ncnc21)OCP(=O)(O)OCCCCCCCCCCCCCCCCCCCC(F)(F)F.N | 603 | 72.4 | > 20 | > 20 | 0.12 | > 2 | –
4 | C[C@H](Cn1cnc2c(N)ncnc21)OCP(=O)(O)OCCCOCCCCCCCCCCCCCCCC(F)(F)F.N | > 2040 | > 100 | > 20 | > 20 | 0.049 | > 2 | AUC [8]: 337 ng·h/mL; Ratio AUC [9]: 3.8; Tmax [10]: 2 h; AUC [11]: 22600 ng·h/mL; Cmax [12]: 1120 ng/mL; Tmax [13]: 2 h; Tmax [14]: 8 h; Cmax [15]: 22.1 ng/mL; Tmax [16]: 24 h; Ratio AUC [17]: 4.81; fraction unbound at 24 h [18]: < 0.001
5 | CCCCCCCCCCCCCCCCCCOP(=O)(O)CO[C@H](C)Cn1cnc2c(N)ncnc21.N | 895 | 84.1 | – | – | 0.094 | 0.217 | –
6 | C#CCCCCCCCCCCCCCCCCOP(=O)(O)CO[C@H](C)Cn1cnc2c(N)ncnc21.N | > 49 | > 100 | – | – | 2.03 | > 2 | –
7 | C#CCCCCCCCCCCCCCOP(=O)(O)CO[C@H](C)Cn1cnc2c(N)ncnc21.N | > 3 | > 100 | – | – | 28.6 | 1.57 | Ratio [19]: >= 3
8 | C[C@H](Cn1cnc2c(N)ncnc21)OCP(=O)(O)O [TENOFOVIR ANHYDROUS] | 22 | 35.4 | > 50 | 45.8 | 1.6 | – | selectivity ratio [20]: > 49; CC50 [21]: > 100 µM; IC50 [22]: 2.06 µM
